In US20240317780A1, “RADIOPHARMACEUTICAL SOMATOSTATIN RECEPTOR LIGANDS AND PRECURSORS THEREOF” (Technische Universität München, priority 2021, published 2024):

target: T1, SST2 (Homo sapiens, UniProt P30874); assay: Determination of IC50: competitive binding against [125I]TOC on SST2-transfected CHO cells; details: [125I]TOC reference radioligand, 60 min room temperature
T1 construct: expressed in transfected cells; host or cells: CHO (Chinese hamster ovary) cells
Experimental: The SST2-transfected CHO cells were cultivated in Dulbecco's Modified Eagle Medium/Nutrient Mixture F-12 (DMEM/F-12) with Glutamax-I (1:1) (Gibco), supplemented with 10% fetal calf serum (FCS) and maintained at 37° C. in a humidified 5% CO2 atmosphere. […] After removal of the culture medium, the cells were treated once with 300 μL of HBSS-B (Hank's balanced salt solution, Biochrom, Berlin, Germany, with addition of 1% bovine serum albumin (BSA)) and left with 200 μL HBSS-B. Next, 25 μL per well of solutions, containing either HBSS-B (control) or the respective ligand in increasing concentration (10^−10-10^−4 M in HBSS-B, were added with subsequent addition of 25 μL of
[^125I]TOC ([^125I]Tyr^3-Octreotide) (1.0 nM) in HBSS-B. Each concentration is investigated in triplicate. After 60 min incubation at room temperature, the experiment was terminated by removal of the assay medium and consecutive rinsing with 300 μL of cold PBS. The media of both steps were combined in one fraction and represent the amount of unbound radioligand.
Afterwards, the cells were lysed with 300 μL of 1 M NaOH and united with the 300 μL 1 M NaOH of the following wash step. Quantification of bound and unbound radioligand was accomplished in a γ-counter.

T1 sequence (P30874 whole entry, species assumed): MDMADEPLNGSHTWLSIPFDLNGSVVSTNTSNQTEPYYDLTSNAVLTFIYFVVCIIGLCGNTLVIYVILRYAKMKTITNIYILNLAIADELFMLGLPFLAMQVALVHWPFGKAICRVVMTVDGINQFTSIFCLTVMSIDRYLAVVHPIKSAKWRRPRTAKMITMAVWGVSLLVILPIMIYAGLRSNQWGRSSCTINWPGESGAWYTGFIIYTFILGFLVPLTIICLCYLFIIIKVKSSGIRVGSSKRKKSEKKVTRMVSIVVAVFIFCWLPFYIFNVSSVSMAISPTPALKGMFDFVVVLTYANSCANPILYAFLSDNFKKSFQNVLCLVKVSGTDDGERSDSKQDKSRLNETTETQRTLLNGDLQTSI

Compound | IC50
C[C@@H](O)[C@H](NC(=O)C1CSSCC(NC(=O)C(Cc2ccccc2)NC(=O)[C@@H](CC(N)=O)NC(=O)C(CC(N)=O)NC(=O)CNC(=O)C(CC(=O)O)NC(=O)[C@@H](CC(=O)O)NC(=O)C(CNC(=O)CN2CCN(CC(=O)O)CCN(CC(=O)O)CCN(CC(=O)O)CC2)NC(=O)C[N+](C)(C)Cc2ccc([Si](F)(C(C)(C)C)C(C)(C)C)cc2)C(=O)N[C@@H](Cc2ccc(O)cc2)C(=O)NC(Cc2c[nH]c3ccccc23)C(=O)N[C@@H](CCCCN)C(=O)N[C@@H]([C@@H](C)O)C(=O)N1)C(=O)O (stereo partly shown) (natGa complex, metal not drawn) [[Ga]49] | 6.31 ± 0.99 nM
C[C@@H](O)[C@H](NC(=O)C1CSSCC(NC(=O)C(Cc2ccccc2)NC(=O)CNC(=O)CNC(=O)CNC(=O)C(CC(=O)O)NC(=O)[C@@H](CC(=O)O)NC(=O)C(CNC(=O)CN2CCN(CC(=O)O)CCN(CC(=O)O)CCN(CC(=O)O)CC2)NC(=O)[C@@H](CN)NC(=O)C[N+](C)(C)Cc2ccc([Si](F)(C(C)(C)C)C(C)(C)C)cc2)C(=O)N[C@@H](Cc2ccc(O)cc2)C(=O)NC(Cc2c[nH]c3ccccc23)C(=O)N[C@@H](CCCCN)C(=O)N[C@@H]([C@@H](C)O)C(=O)N1)C(=O)O (stereo partly shown) (natLu complex, metal not drawn) [[Lu]51] | 3.09 ± 0.16 nM
C[C@@H](O)[C@H](NC(=O)C1CSSCC(NC(=O)C(Cc2ccccc2)NC(=O)CNC(=O)CNC(=O)[C@@H](CC(=O)O)NC(=O)C(CC(=O)O)NC(=O)[C@@H](CNC(=O)CC[C@H](C(=O)O)N2CCN(CC(=O)O)CCN(CC(=O)O)CCN(CC(=O)O)CC2)NC(=O)C(CN)NC(=O)c2ccc([Si](F)(C(C)(C)C)C(C)(C)C)cc2)C(=O)N[C@@H](Cc2ccc(O)cc2)C(=O)NC(Cc2c[nH]c3ccccc23)C(=O)N[C@@H](CCCCN)C(=O)N[C@@H]([C@@H](C)O)C(=O)N1)C(=O)O (stereo partly shown) (natGa complex, metal not drawn) [[Ga]20] | 12.7 ± 1 nM
C[C@@H](O)[C@H](NC(=O)C1CSSCC(NC(=O)C(Cc2ccccc2)NC(=O)[C@@H](CC(N)=O)NC(=O)C(CC(N)=O)NC(=O)[C@@H](CC(=O)O)NC(=O)C(CC(=O)O)NC(=O)[C@@H](CNC(=O)CN2CCN(CC(=O)O)CCN(CC(=O)O)CCN(CC(=O)O)CC2)NC(=O)C[N+](C)(C)Cc2ccc([Si](F)(C(C)(C)C)C(C)(C)C)cc2)C(=O)N[C@@H](Cc2ccc(O)cc2)C(=O)NC(Cc2c[nH]c3ccccc23)C(=O)N[C@@H](CCCCN)C(=O)N[C@@H]([C@@H](C)O)C(=O)N1)C(=O)O (stereo partly shown) (natLu complex, metal not drawn) [[Lu]48] | 5.5 ± 1.47 nM
C[C@@H](O)[C@H](NC(=O)C1CSSCC(NC(=O)C(Cc2ccccc2)NC(=O)CNC(=O)CNC(=O)CNC(=O)C(CC(=O)O)NC(=O)[C@@H](CC(=O)O)NC(=O)C(CCCCN)NC(=O)[C@@H](CNC(=O)C[N+](C)(C)Cc2ccc([Si](F)(C(C)(C)C)C(C)(C)C)cc2)NC(=O)CN2CCN(CC(=O)O)CCN(CC(=O)O)CCN(CC(=O)O)CC2)C(=O)N[C@@H](Cc2ccc(O)cc2)C(=O)NC(Cc2c[nH]c3ccccc23)C(=O)N[C@@H](CCCCN)C(=O)N[C@@H]([C@@H](C)O)C(=O)N1)C(=O)O (stereo partly shown) (natLu complex, metal not drawn) [[Lu]45] | 3.37 ± 0.35 nM
C[C@@H](O)[C@H](NC(=O)C1CSSCC(NC(=O)C(Cc2ccccc2)NC(=O)[C@@H](CC(N)=O)NC(=O)C(CC(N)=O)NC(=O)CNC(=O)C(CC(=O)O)NC(=O)[C@@H](CC(=O)O)NC(=O)C(CNC(=O)CN2CCN(CC(=O)O)CCN(CC(=O)O)CCN(CC(=O)O)CC2)NC(=O)C[N+](C)(C)Cc2ccc([Si](F)(C(C)(C)C)C(C)(C)C)cc2)C(=O)N[C@@H](Cc2ccc(O)cc2)C(=O)NC(Cc2c[nH]c3ccccc23)C(=O)N[C@@H](CCCCN)C(=O)N[C@@H]([C@@H](C)O)C(=O)N1)C(=O)O (stereo partly shown) (natLu complex, metal not drawn) [[Lu]49] | 4.47 ± 0.95 nM
C[C@@H](O)[C@H](NC(=O)C1CSSCC(NC(=O)C(Cc2ccccc2)NC(=O)CNC(=O)CNC(=O)[C@@H](CC(=O)O)NC(=O)C(CC(=O)O)NC(=O)[C@@H](CNC(=O)CN2CCN(CC(=O)O)CCN(CC(=O)O)CCN(CC(=O)O)CC2)NC(=O)C[N+](C)(C)Cc2ccc([Si](F)(C(C)(C)C)C(C)(C)C)cc2)C(=O)N[C@@H](Cc2ccc(O)cc2)C(=O)NC(Cc2c[nH]c3ccccc23)C(=O)N[C@@H](CCCCN)C(=O)N[C@@H]([C@@H](C)O)C(=O)N1)C(=O)O (stereo partly shown) (natLu complex, metal not drawn) [[Lu]24] | 5.5 ± 0.76 nM
C[C@@H](O)[C@H](NC(=O)C1CSSCC(NC(=O)C(Cc2ccccc2)NC(=O)CNC(=O)CNC(=O)CNC(=O)C(CC(=O)O)NC(=O)[C@@H](CC(=O)O)NC(=O)C(CCC(=O)O)NC(=O)[C@@H](CNC(=O)C[N+](C)(C)Cc2ccc([Si](F)(C(C)(C)C)C(C)(C)C)cc2)NC(=O)CN2CCN(CC(=O)O)CCN(CC(=O)O)CCN(CC(=O)O)CC2)C(=O)N[C@@H](Cc2ccc(O)cc2)C(=O)NC(Cc2c[nH]c3ccccc23)C(=O)N[C@@H](CCCCN)C(=O)N[C@@H]([C@@H](C)O)C(=O)N1)C(=O)O (stereo partly shown) (natLu complex, metal not drawn) [[Lu]47] | 5.13 ± 0.51 nM
C[C@@H](O)[C@H](NC(=O)C1CSSCC(NC(=O)C(Cc2ccccc2)NC(=O)CNC(=O)CNC(=O)CNC(=O)C(CC(=O)O)NC(=O)[C@@H](CC(=O)O)NC(=O)C(CNC(=O)CN2CCN(CC(=O)O)CCN(CC(=O)O)CCN(CC(=O)O)CC2)NC(=O)[C@@H](CN)NC(=O)CNC(=O)C[N+](C)(C)Cc2ccc([Si](F)(C(C)(C)C)C(C)(C)C)cc2)C(=O)N[C@@H](Cc2ccc(O)cc2)C(=O)NC(Cc2c[nH]c3ccccc23)C(=O)N[C@@H](CCCCN)C(=O)N[C@@H]([C@@H](C)O)C(=O)N1)C(=O)O (stereo partly shown) (natLu complex, metal not drawn) [[Lu]52] | 3.51 ± 0.41 nM
C[C@@H](O)[C@H](NC(=O)C1CSSCC(NC(=O)C(Cc2ccccc2)NC(=O)CNC(=O)CNC(=O)CNC(=O)C(CC(=O)O)NC(=O)[C@@H](CC(=O)O)NC(=O)C(CNC(=O)CN2CCN(CC(=O)O)CCN(CC(=O)O)CCN(CC(=O)O)CC2)NC(=O)[C@@H](CN)NC(=O)C[N+](C)(C)Cc2ccc([Si](F)(C(C)(C)C)C(C)(C)C)cc2)C(=O)N[C@@H](Cc2ccc(O)cc2)C(=O)NC(Cc2c[nH]c3ccccc23)C(=O)N[C@@H](CCCCN)C(=O)N[C@@H]([C@@H](C)O)C(=O)N1)C(=O)O (stereo partly shown) (natGa complex, metal not drawn) [[Ga]51] | 3.56 ± 0.25 nM
C[C@@H](O)[C@H](NC(=O)C1CSSCC(NC(=O)C(Cc2ccccc2)NC(=O)CNC(=O)CNC(=O)CNC(=O)C(CC(=O)O)NC(=O)[C@@H](CC(=O)O)NC(=O)C(CNC(=O)CN2CCN(CC(=O)O)CCN(CC(=O)O)CCN(CC(=O)O)CC2)NC(=O)[C@@H](CN)NC(=O)CNC(=O)C[N+](C)(C)Cc2ccc([Si](F)(C(C)(C)C)C(C)(C)C)cc2)C(=O)N[C@@H](Cc2ccc(O)cc2)C(=O)NC(Cc2c[nH]c3ccccc23)C(=O)N[C@@H](CCCCN)C(=O)N[C@@H]([C@@H](C)O)C(=O)N1)C(=O)O (stereo partly shown) (natGa complex, metal not drawn) [[Ga]52] | 3.69 ± 0.34 nM
C[C@@H](O)[C@H](NC(=O)C1CSSCC(NC(=O)C(Cc2ccccc2)NC(=O)CNC(=O)CNC(=O)[C@@H](CC(=O)O)NC(=O)C(CC(=O)O)NC(=O)[C@@H](CNC(=O)CC[C@H](C(=O)O)N2CCN(CC(=O)O)CCN(CC(=O)O)CCN(CC(=O)O)CC2)NC(=O)C(CN)NC(=O)c2ccc([Si](F)(C(C)(C)C)C(C)(C)C)cc2)C(=O)N[C@@H](Cc2ccc(O)cc2)C(=O)NC(Cc2c[nH]c3ccccc23)C(=O)N[C@@H](CCCCN)C(=O)N[C@@H]([C@@H](C)O)C(=O)N1)C(=O)O (stereo partly shown) (natLu complex, metal not drawn) [[Lu]20] | 11 ± 5.69 nM
C[C@@H](O)[C@H](NC(=O)C1CSSCC(NC(=O)C(Cc2ccccc2)NC(=O)[C@@H](CC(N)=O)NC(=O)C(CC(N)=O)NC(=O)[C@@H](CC(=O)O)NC(=O)C(CC(=O)O)NC(=O)[C@@H](CNC(=O)CN2CCN(CC(=O)O)CCN(CC(=O)O)CCN(CC(=O)O)CC2)NC(=O)C[N+](C)(C)Cc2ccc([Si](F)(C(C)(C)C)C(C)(C)C)cc2)C(=O)N[C@@H](Cc2ccc(O)cc2)C(=O)NC(Cc2c[nH]c3ccccc23)C(=O)N[C@@H](CCCCN)C(=O)N[C@@H]([C@@H](C)O)C(=O)N1)C(=O)O (stereo partly shown) (natGa complex, metal not drawn) [[Ga]48] | 6.1 ± 0.57 nM
